Tests used:
Assay type in all cases: in vivo
[1] = test system: barnyardgrass (Echinochloa crus-galli); assay: Test A preemergence
How it was run: (§1)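 Visual injury scores from 0, no effect, to 100, complete control, were assigned versus untreated controls roughly 10 d after treatment in the greenhouse. Test chemicals, formulated with surfactant in a non-phytotoxic solvent, were applied to planted seeds as a preemergence soil spray or postemergence to one- to two-leaf plants 2 to 10 cm tall, in loam–sand soil.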

[2] = test system: Kochia (Kochia scoparia); assay: Test A preemergence
How it was run: as §1

[3] = test system: ryegrass, Italian (Italian ryegrass, Lolium multiflorum); assay: Test A preemergence
How it was run: as §1

[4] = test system: giant foxtail (Setaria faberii); assay: Test A preemergence
How it was run: as §1

[5] = test system: ragweed (common ragweed, Ambrosia elatior); assay: Test A preemergence
How it was run: as §1

[6] = test system: pigweed (Amaranthus retroflexus); assay: Test A preemergence
[7] = test system: barnyardgrass (Echinochloa crus-galli); assay: Test A postemergence
How it was run: as §1

[8] = test system: Kochia (Kochia scoparia); assay: Test A postemergence
How it was run: as §1

[9] = test system: Galium (catchweed bedstraw, Galium aparine); assay: Test A postemergence
How it was run: as §1

[10] = test system: ryegrass, Italian (Italian ryegrass, Lolium multiflorum); assay: Test A postemergence
How it was run: as §1

[11] = test system: corn (Zea mays); assay: Test A postemergence
How it was run: as §1

[12] = test system: blackgrass (Alopecurus myosuroides); assay: Test A postemergence
How it was run: as §1

[13] = test system: giant foxtail (Setaria faberii); assay: Test A postemergence
How it was run: as §1

[14] = test system: wheat (Triticum aestivum); assay: Test A postemergence
How it was run: as §1

[15] = test system: ragweed (common ragweed, Ambrosia elatior); assay: Test A postemergence
How it was run: as §1

[16] = test system: pigweed (Amaranthus retroflexus); assay: Test A postemergence
How it was run: as §1

[17] = test system: barnyardgrass (Echinochloa crus-galli); assay: Test B flooded paddy test; conditions: Flood, 250 g ai/ha; 0 to 100 scale where 0 is no effect and 100 is complete control; 13 to 15 d
How it was run: (§2)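 Compound goes directly into floodwater once pots are flooded 3 cm above soil, targeting plants at two leaves; the water depth is then held for the test duration. Plants sit 13–15 d in a greenhouse and are rated visually, 100 denoting complete control.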

[18] = test system: sedge, umbrella (small-flower umbrella sedge, Cyperus difformis); assay: Test B flooded paddy test; conditions: Flood, 250 g ai/ha; 0 to 100 scale where 0 is no effect and 100 is complete control; 13 to 15 d
How it was run: as §2

[19] = test system: rice (Oryra sativa); assay: Test B flooded paddy test; conditions: Flood, 250 g ai/ha; 0 to 100 scale where 0 is no effect and 100 is complete control; 13 to 15 d
How it was run: as §2

[20] = test system: ducksalad (Heteranthera limosa); assay: Test B flooded paddy test; conditions: Flood, 250 g ai/ha; 0 to 100 scale where 0 is no effect and 100 is complete control; 13 to 15 d
How it was run: as §2

[21] = 125 g ai/ha, Preemergence, visual injury after approximately 10 d, 0 to 100 scale where 0 is no effect and 100 is complete control
[22] = 500 g ai/ha, preemergence, 0 to 100 scale, 0 = no effect, 100 = complete control
[23] = 125 g ai/ha, postemergence, visual rating after approx. 10 d, 0 to 100 scale (0 no effect, 100 complete control)
[24] = Postemergence, 500 g ai/ha, 0 to 100 scale where 0 is no effect and 100 is complete control
[25] = 125 g ai/ha, preemergence, 0 to 100 scale (0 no effect, 100 complete control)
[26] = Preemergence, 500 g ai/ha, 0 is no effect, 100 is complete control
[27] = 500 g ai/ha, postemergence, 0 to 100 scale, 0 no effect, 100 complete control
[28] = Postemergence, 125 g ai/ha, visual injury, 0 to 100 scale (0 no effect, 100 complete control), approx. 10 d
[29] = 125 g ai/ha, postemergence, visual injury rating on 0 to 100 scale (0 no effect, 100 complete control), approx. 10 d

CN1CC(c2cccc(OC(F)F)c2)C(C(=O)Nc2ccc(F)cc2F)C1=O (stereo not drawn) [Compound 617]
0: Plant response rating, Sedge, Umbrella [18]
90: Plant response rating, Barnyardgrass [1, 21] | Plant response rating, Barnyardgrass [1, 22] | Plant response rating, Ryegrass, Italian [3, 22] | Plant response rating, Foxtail, Giant [4, 21] | Plant response rating, Pigweed [6, 21] | Plant response rating, Pigweed [6, 22] | Plant response rating, Barnyardgrass [7, 23] | Plant response rating, Barnyardgrass [7, 24] | Plant response rating, Foxtail, Giant [13, 23] | Plant response rating, Foxtail, Giant [13, 24] | Plant response rating, Barnyardgrass [17]
50: Plant response rating, Kochia [8, 23] | Plant response rating, Ryegrass, Italian [10, 24] | Plant response rating, Wheat [14, 23] | Plant response rating, Ragweed [15, 24] | Plant response rating, Pigweed [16, 24]
30: Plant response rating, Ragweed [5, 21] | Plant response rating, Pigweed [16, 23]
100: Plant response rating, Foxtail, Giant [4, 22] | Plant response rating, Ducksalad [20]
20: Plant response rating, Ryegrass, Italian [10, 23] | Plant response rating, Ragweed [15, 23]
70: Plant response rating, Kochia [2, 21] | Plant response rating, Kochia [2, 22] | Plant response rating, Ryegrass, Italian [3, 21]
60: Plant response rating, Ragweed [5, 22] | Plant response rating, Kochia [8, 24] | Plant response rating, Galium [9, 23] | Plant response rating, Galium [9, 24] | Plant response rating, Blackgrass [12, 24] | Plant response rating, Wheat [14, 24]
40: Plant response rating, Blackgrass [12, 23]
80: Plant response rating, Corn [11, 23] | Plant response rating, Corn [11, 24]
10: Plant response rating, Rice [19]

CN1CC(c2ccc(C(F)(F)F)c(F)c2)C(C(=O)Nc2cccc(F)c2F)C1=O (stereo not drawn) [Compound 396]
70: Ryegrass, Italian plant response rating (0 to 100 scale) [3, 26] | Plant response rating, Barnyardgrass [7, 28] | Plant response rating, Kochia [8, 27] | Plant response rating, Ryegrass, Italian [10, 27] | Corn plant response rating [11, 29] | Plant response rating, Wheat [14, 27] | Plant response rating, Pigweed [16, 27]
40: Plant response rating, Barnyardgrass [17] | Plant response rating, Ducksalad [20]
90: Plant response rating, Barnyardgrass [1, 25] | Barnyardgrass plant response rating (0 to 100 scale) [1, 26] | Plant response rating, Foxtail, Giant [4, 25] | Foxtail, Giant plant response rating (0 to 100 scale) [4, 26] | Plant response rating, Pigweed [6, 25] | Pigweed plant response rating (0 to 100 scale) [6, 26] | Plant response rating, Barnyardgrass [7, 27] | Plant response rating, Foxtail, Giant [13, 27]
0: Plant response rating, Ragweed [5, 25] | Ragweed plant response rating [15, 29] | Plant response rating, Ragweed [15, 27] | Plant response rating, Sedge, Umbrella [18]
30: Plant response rating, Rice [19]
20: Ragweed plant response rating (0 to 100 scale) [5, 26] | Wheat plant response rating [14, 29]
80: Plant response rating, Kochia [2, 25] | Kochia plant response rating (0 to 100 scale) [2, 26] | Plant response rating, Corn [11, 27] | Foxtail, Giant plant response rating [13, 29]
50: Ryegrass, Italian plant response rating [10, 29] | Plant response rating, Blackgrass [12, 28]
60: Plant response rating, Ryegrass, Italian [3, 25] | Kochia plant response rating [8, 29] | Galium plant response rating [9, 29] | Plant response rating, Galium [9, 27] | Plant response rating, Blackgrass [12, 27] | Pigweed plant response rating [16, 29]
